For assay [1], the target named is T1, human vitamin D-binding protein (hDBP) (Homo sapiens, UniProt P02774).
T1 sequence (P02774 17-474): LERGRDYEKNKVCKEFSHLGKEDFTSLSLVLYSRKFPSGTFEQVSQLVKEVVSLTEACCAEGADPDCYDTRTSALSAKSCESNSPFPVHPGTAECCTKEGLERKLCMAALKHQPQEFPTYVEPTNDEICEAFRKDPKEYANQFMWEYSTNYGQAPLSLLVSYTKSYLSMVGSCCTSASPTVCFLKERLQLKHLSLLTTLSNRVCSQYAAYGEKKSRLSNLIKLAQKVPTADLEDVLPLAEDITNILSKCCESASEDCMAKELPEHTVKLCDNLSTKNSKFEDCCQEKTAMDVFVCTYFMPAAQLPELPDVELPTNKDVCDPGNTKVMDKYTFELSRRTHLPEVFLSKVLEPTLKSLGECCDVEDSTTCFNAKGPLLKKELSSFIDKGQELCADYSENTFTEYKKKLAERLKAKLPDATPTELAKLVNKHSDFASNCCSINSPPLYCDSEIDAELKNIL
In words: Relative Competitive Index assay, vitamin D-binding protein. The settings on record: RCI of 1α,25(OH)2 D3 set to 100; 4° C., pH 7.4. The source says: The compared analogs are 14α,15α-methano-1α,25(OH)2 D3 (LO), 22(m(dimethylhydroxymethyl)phenyl)-23,24,25,26,27-pentanor-1α- OH-D3 (EV) and (22R)-1,25(OH)2 -22,23,diene-D3 (HR), all conformationally flexible genomic agonists. By definition the RCI for 1α,25(OH)2 D3 is set to 100%. The data seen in FIG. 7 represent the mean of three determinations.
Vitamin D-Binding Protein Assay Relative Competitive Index
This example describes a Relative Competitive Index Assay used for determination of analogs binding affinity to vitamin D-binding protein.
Phase separation was then obtained by the addition of 0.5 ml of cold dextran-coated charcoal.
The data was plotted as [competitor]/[[^3 H]25(OH)D3 ] vs. 1/[fraction bound]. The RCI was calculated as [slope of competitor]/[slopefor 25(OH)D3 ]×100. Results are seen in FIG. 7. Although each analog was assayed in competition with [^3 H]25(OH)D3, the data are expressed as relative to the binding of 1α,25(OH)2 D3, with its RCI set to 100.

Assay [2] relates to vitamin D-deficient chick. In words: Intestinal Ca2+ absorption (ICA) in vitamin D-deficient chick. In kind it is in vivo. The note with it: i.m.; for Classic Vit D Responses ICA: relative to 100 pmol 1α,25(OH)2 D3 = 100%, 12 h before assay. On the procedure:
A primary fundamental physiological property of vitamin D and particularly 1α,25(OH)2 D3 is its ability to stimulate the intestinal absorption of calcium and facilitate the availability of dietary calcium to the organism. Intestinal absorption of the calcium is measured by the intestinal calcium absorption (ICA) assay, developed in the model of vitamin-D deficient chicks. The ICA assay was used to determine the relative capability of the tested analog to stimulate intestinal Ca^2+ absorption.
(§1) Results of the testing of the analogs of the invention in vivo by the ICA and IBM assays are shown in FIG. 9 which illustrates the capability of analogs LO, EV and HR to stimulate intestinal Ca^2+ absorption (ICA) and bone Ca^2+ mobilizing activity (BCM). In this study, the analogs of 1α,25(OH) were given i.m. to vitamin D-deficient chicks 12 hours before the assay began. The activity produced by 100 pmol of 1α,25(OH)2 D3 was set to be 100% for both ICA and BCM. The dose of the analogs required to achieve a biological response for either ICA or BCM equivalent to the 100 pmol dose of 1α,25(OH)2 D3 was calculated and converted to a percentage. Results are expressed as mean +SE of groups of seven chicks. Each assay included a negative control (-D), that is no vitamin D was present, and a positive control, where vitamin D3 (+D3) was present in 3.25 nmol. […] 1α,25(OH)2 D3 and analogs LO [14α,15α-methano-1α,25(OH)2 D3 ], EV [22-(m(dimethylhydroxymethyl)phenyl)-23,24,25,26,27-pentanor-1α-OH-D3 ] and HR [(22R)-1,25(OH)2 -22,23-diene-D3 ] were administered in 0.0065, 0.065, 0.65 and 6.5 nmol as shown.
(§2) In Vivo Assays of Intestinal Calcium Absorption and Bone Calcium Mobilization
(§3) This example describes assays used for determination of analogs biological activity in intestinal calcium absorption (ICA) and bone calcium mobilization (BCM) assays.
(§4) ICA and BCM were measured in vivo in the vitamin D-deficient chick model system according to Biochem. Pharmacol., 18: 2347 (1969).
(§5) Twelve hours before assay, the chickens, which had been placed on a zero-calcium diet 48 h before assay, were injected intramuscularly with the vitamin metabolite 1α,25(OH)2 D3 or analog (1-10,000 pmoles) dissolved in 0.1 mL of ethanol/1,2-propanediol (1:1, v/v). At the time of assay, 4.0 mg of ^40 Ca^2+ +5 μCi of ^45 Ca^2+ (New England Nuclear) were placed in the duodenum of the birds lightly anesthetized with ether. After 30 min, the birds were decapitated and the blood was collected.
The radioactivity content, which is a measure of ICA, of 0.2 mL of serum was measured in a liquid scintillation counter (Beckman LS8000) to determine the amount of ^45 Ca^2+ absorbed.

The test system of assay [3] is vitamin D-deficient chick. In words: Bone Ca2+ mobilizing activity (BCM) in vitamin D-deficient chick. Type of assay: in vivo. The note with it: i.m.; for Classic Vit D Responses BCM: relative to 100 pmol 1α,25(OH)2 D3 = 100%, 12 h before assay. How it is done: The bone calcium mobilizing (BCM) assay is also conducted in the vitamin D-deficient chick. The BCM assay determines the relative ability of the tested analog to mobilize bone calcium. The natural hormone 1α,25(OH)2 D3 is very potent in the BCM assay. For example, when 1α,25(OH)2 D3 in inappropriate amounts are used as a drug in human patients, the patient may become hypercalcemic and eventually hypercalciuria with nephrolithiasis and renal failure may develop. The BCM assay was used to determine the relative activity of the analogs of the invention to stimulate bone Ca^2+ mobilization.
as §1, §2, §3, §4, §5
BCM activity was estimated from the increase of total serum calcium concentration, as determined by atomic absorption spectrophotometry.

Another assay concerns VDRnuc. In words: Genomic response (summary classification). The note with it: Yes/No, Tables 1 and 6. The source says:
(§6) Table 6 identifies biological properties, such as genomic response, rapid response, agonist or antagonist function, binding of the analog to the vitamin binding protein (expressed as RCI), binding to the nuclear 1α,25(OH)2 D3 receptor (expressed as RCI) rapid response (expressed as % transcaltachia the rapid hormonal stimulation of intestinal calcium absorption) the classic vitamin D responses such as intestinal Ca^2+ absorption (ICA) and bone Ca^2+ mobilizing activity (BCM) determined in vivo in a vitamin D-deficient chick, and cell differentiation (expressed as % ED50), an assessment of the ability to promote the nuclear response of cell differentiation.

For a further assay, the system named is VDRmem. The assay is described as follows: Rapid response (summary classification). The settings on record: Yes/No, Tables 1 and 6.
Source text: as §6

Another assay deals with rapid responses (VDRmem). In words: Antagonist function (summary classification). The note with it: Yes/No, Tables 1 and 6.
Source text: as §6

Assay [4] concerns the target T2, nuclear receptor for 1α,25(OH)2 D3 [VDRnuc] (Gallus gallus, UniProt O42392).
T2 construct: VDRnuc receptor preparation from chick intestine mucosa; from tissue; host or cells: chick intestinal mucosa
T2 sequence (O42392 1-451): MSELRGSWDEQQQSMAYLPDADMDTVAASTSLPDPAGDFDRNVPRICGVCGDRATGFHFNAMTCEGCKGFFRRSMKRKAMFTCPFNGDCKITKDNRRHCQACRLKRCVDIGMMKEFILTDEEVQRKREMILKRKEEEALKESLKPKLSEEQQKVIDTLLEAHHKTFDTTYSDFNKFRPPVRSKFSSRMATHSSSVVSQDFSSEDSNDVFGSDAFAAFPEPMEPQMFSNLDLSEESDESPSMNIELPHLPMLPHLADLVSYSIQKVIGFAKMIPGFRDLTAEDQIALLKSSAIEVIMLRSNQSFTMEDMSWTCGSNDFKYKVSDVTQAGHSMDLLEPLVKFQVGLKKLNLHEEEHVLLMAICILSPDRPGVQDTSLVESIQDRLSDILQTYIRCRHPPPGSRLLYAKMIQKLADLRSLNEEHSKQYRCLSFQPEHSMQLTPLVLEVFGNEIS
The assay is described as follows: Relative Competitive Index (steroid competition) assay, nuclear receptor VDRnuc. The settings on record: RCI of 1α,25(OH)2 D3 = 100. More on the design: key to Nuclear 1α,25-D Receptor (RCI): % relative to 1α,25(OH)2D3 binding (RCI = 100%). Type of assay: binding, chick. On the procedure: The ability of analogs to mediate genomic responses are directly determined by the ability of the analog in question to bind to the nuclear receptor for 1α,25(OH)2 D3 [VDRnuc ]. This ability is detected by the assay measuring Relative Competitive Index (RCI).
The assay is based upon the principles of a steroid competition assay. A fixed amount of [^3 H]1α,25(OH)2 D3 is mixed with increasing amounts of competitive analogs or the natural hormone, 1α,25(OH)2 D3, and incubated with a VDRnuc receptor preparation from chick intestine mucosa.
Ligand Receptor Competition Assay
This example describes a ligand receptor competitive assay used for determination of an analog's relative ability to bind to VDRnuc expressed as relative competitive index (RCI).
The relative affinity of nonradioactive 1α,25(OH)2 D3 and each analog to compete with [^3 H]1α,25(OH)2 D3 for binding to the VDRnuc of NB4 cells was carried out in vitro. The NB4 cells were collected from a fast growing stage and the cellular VDRnuc of 1α,25(OH)2 D3 were extracted from KTED buffer containing 10 mM Tris-HCl, pH 7.4, 300 mM KCl, 1 mM EDTA and 5 mM DTT. After sonication, the cell extract was further centrifuged at 500× g for 10 min. The supernatant was collected for use in a ligand-receptor binding assay.
In this assay, increasing concentrations (10^-10 to 10^-6 M) of nonradioactive 1α,25(OH)2 D3 or the tested analogs were incubated with NB4 cell extracts in the presence of a fixed saturating amount of 1 pmole of [^3 H]1α,25(OH)2 D3. The reciprocal of the percentage of maximal binding of [^3 H]1α,25(OH)2 D3 was then calculated and plotted as a function of the relative analog concentration versus [^3 H]1α,25(OH)2 D3. […] The competitive index value for each analog is then normalized to the competitive index value of the […], thereby generating the value of Relative Competitive Index (RCI) where the RCI for 1α,25(OH)2 D3 is defined as 100%.
The full description of the assay is found in Methods in Enzymology: Vitamins and Co-Enzymes, Vol. 67, 494-500 , Academic Press, NY(1980); Biochem. Biophys. Res. Commun., 91: 827-834 (1979); and Endocrinology, 139(2): 457-465 (1998).

On to `C=C1CC[C@H](O)C/C1=C/C=C1\CCC[C@]2(C)[C@@H]([C@H](C)CCCC(C)(C)O)CC[C@@H]12` [25(OH)D3, 25-hydroxyvitamin D3, reference compound], for which the “Vit D Binding Protein (RCI)” value in assay [1] was 66,700.

Take `C=C1/C(=C\C=C2/CCC[C@@]3(C)[C@@H]2CC[C@@H]3[C@H](C)CCCC(C)(C)O)C[C@@H](O)C[C@@H]1O` [GE]: in assay [2], the “Classic Vit D Responses ICA” value was 0.5%. Moreover, the “Classic Vit D Responses BCM” value in assay [3] was under 0.1%. For the same compound, in the assay on VDRnuc, the “Genomic Response” value is listed as “Yes”. The “Rapid Response” value in the assay on VDRmem is reported as “Yes”. Further, the Antagonist result in the assay with rapid responses (VDRmem) was “No”.

On to `C=C1/C(=C\C=C2/CCC[C@]3(C)[C@@H]([C@H](C)CCCC(C)(C)O)CC[C@@H]23)C[C@H](O)C[C@H]1O` [HH], for which the “Genomic Response” value with VDRnuc is listed as “No”. Also, the “Rapid Response” value in the assay on VDRmem is on record as “No”. In the assay with rapid responses (VDRmem), the Antagonist result is “Yes”.

Regarding `C=C1/C(=C\C=C2/CCC[C@]3(C)[C@@H]([C@H](C)CCCC(C)(C)O)CC[C@@H]23)C[C@H](O)C[C@@H]1O` [HJ], the “Classic Vit D Responses ICA” value in assay [2] is 2.8%. The “Classic Vit D Responses BCM” value in assay [3] was 1.5%. Besides, the “Genomic Response” value with VDRnuc was “Yes”. Besides, the “Rapid Response” value in the assay on VDRmem is recorded as “Yes”. In the assay on rapid responses (VDRmem), the Antagonist entry is “No”.

For the compound `C=C1/C(=C\C=C2/CCC[C@]3(C)[C@@H]([C@H](C)C#Cc4cccc(C(C)(C)O)c4)CC[C@@H]23)C[C@@H](O)C[C@@H]1O` [IB], in assay [4], the “Nuclear 1α,25-D Receptor (RCI)” value came to 1. The “Genomic Response” value with VDRnuc is “Yes”. Besides, in the assay with VDRmem, the “Rapid Response” value was “Yes”. For the same compound, in the assay on rapid responses (VDRmem), the Antagonist entry is given as “No”.

As for `C=C1/C(=C\C=C2\CCC[C@]3(C)[C@@H]([C@H](C)CCCC(C)(C)O)CC[C@@H]23)C[C@@H](O)C[C@@H]1O` [JR], the “Classic Vit D Responses ICA” value in assay [2] was 0.03%. In addition, the “Classic Vit D Responses BCM” value in assay [3] is 0.02%. Moreover, the “Genomic Response” value with VDRnuc was “Yes”. The “Rapid Response” value with VDRmem is reported as “Yes”. Besides, the Antagonist entry in the assay with rapid responses (VDRmem) is given as “No”.

Regarding `C=C1/C(=C/C=C2/CCC[C@]3(C)[C@@H]([C@H](C)CCCC(C)(C)O)CC[C@@H]23)C[C@@H](O)C[C@@H]1O` [JS], the “Classic Vit D Responses ICA” value in assay [2] is reported as under 0.02%. Besides, in assay [3], the “Classic Vit D Responses BCM” value is given as under 0.02%. The “Genomic Response” value with VDRnuc is “Yes”. Further, the “Rapid Response” value in the assay on VDRmem is “Yes”. Moreover, in the assay with rapid responses (VDRmem), the Antagonist result is reported as “No”.

With `C=C1CC[C@H](O)C/C1=C/C=C1\CCC[C@]2(C)[C@@H]([C@H](C)CCCC(C)C)CC[C@@H]12` [vitamin D3, 9,10-secocholesta-5,7,10(19)-trien-3β-ol, reference compound], the “ICA (in words)” value in assay [2] (vitamin D-deficient chick) was “significant at P<0.01”. For the same compound, the “BCM (in words)” value in assay [3] (vitamin D-deficient chick) was “significant at P<0.01”.

For the origin of these results see patent US6103709A (priority 1998, dated 2000).
